Assay results as given in ChEMBL document CHEMBL3507680, “University of Dundee, Gates Library screen for HepG2 cell viability”.

Test: Human HepG2 cell viability assay in 384 well format
Format: toxicity, cell-based
Set-up: dose 125 nL, time 70.5 hour; concentration not given beside the values
Settings: HepG2 cells, read-out: Inhibition

Structure (SMILES)	cytotoxicity at 70.5 h
COCc1cc(O)nc(C2CCCN(Cc3ccc(F)cc3)C2)n1 (configuration not stated)	-0.561%
CC(C)CN1C[C@H]2CCN(C(=O)C3CCCO3)CC[C@H]2S1(=O)=O (some centres not stated)	-8.39%
COc1cccc2c1OCC(C(=O)N(C)CCCc1cnn(C)c1)C2 (configuration not stated)	-1.77%
NC1CCN(C2CCN(c3ccc(-c4ccco4)cc3)CC2)CC1	-12%
CS(=O)(=O)NC[C@]12COC[C@H]1CN(C(=O)Cc1ccccc1F)C2	-1.03%
CSCC(=O)NC1CCN(C(C)c2ccccc2)CC1 (configuration not stated)	-6.02%
CCNC(=O)[C@@H]1C[C@H](NC(=O)c2ccc(C)s2)CN1Cc1ccc(C)o1	16.1%
C1CCCN(c2nc(C3CC3)ns2)CC1	15.3%
Cc1ccccc1OC1CCN(C(=O)CNC(=O)N(C)C)CC1	-15.2%
c1ccc(-c2cnc(CN(Cc3cccnc3)CC3CCCO3)o2)cc1 (configuration not stated)	-7.3%
Cn1cc(Br)c(C(=O)NCCCn2cc(Br)cn2)n1	6.5%
O=C(Cn1cnc(NC(=O)CC2CCCC2)n1)NCc1ccccc1	1.33%
O=C(CN1CCCC(c2ncc[nH]2)C1)NCC(F)(F)F (configuration not stated)	18.7%
O=C(Cc1ccon1)N1CCN(c2ccncc2Cl)CC1	5.48%
CC(C)N(C)Cc1cc(=O)n2c(n1)CN(S(=O)(=O)C1CC1)CCC2	-7.06%
CC(C)c1nn(C)c(N(C)C)c1CNC1CCCOc2ccccc21 (configuration not stated)	31.4%
Fc1ccc(OCCNC2CCN(Cc3ccncc3)CC2)c(F)c1	12.1%
Cc1noc(NC(=O)c2ccc(Br)cc2)n1	48.3%
Cc1ccc(CN2C[C@@H]3[C@@H](C2)OCC(=O)N3Cc2ccncc2)s1	10.5%
Cn1cc(C2COC3(CCN(C(=O)Cn4cccn4)CC3)C2)cn1 (configuration not stated)	-2.75%
O=C(NCCC1CCN(CC(F)(F)F)CC1)C1COCCO1 (configuration not stated)	0.242%
CN1N=C(C(=O)NCCc2csc(-c3ccccc3)n2)CCC1=O	-4.18%
Cc1nc(CN2CCN(Cc3nccn3C)CC2)no1	3.86%

Structure (SMILES)	cytotoxicity at 70.5 h
NC(=O)CN1CC2(CCC1=O)CCN(Cc1ccc(Cl)c(F)c1)CC2	2.58%
COc1ccnc(N2CCN(C(=O)c3csnn3)CC2)n1	-3.32%
Cc1cnn(CC2CN(CC(=O)Nc3cc(C)no3)CCO2)c1 (configuration not stated)	-9.53%
Cc1cnccc1CN(C)C1CCN(c2ncnc3[nH]cnc23)CC1	-6.65%
COCCNC(=O)NCc1ccc(OC(C)C)c(F)c1	-10.4%
O=C(O)Cc1nc2nccc(-c3ccc(F)cc3)n2n1	17.4%
COc1ccc2cc(C3CN(C(=O)N(C)C)CCO3)ccc2c1 (configuration not stated)	26.1%
CC(C)CN1CCN(Cc2nc3ccccc3[nH]2)[C@H]2CS(=O)(=O)C[C@H]21	-11.1%
COCCNc1cc(C2CCCNC2)ccn1 (configuration not stated)	-7.3%
CCOC(CC)C(=O)NCc1ccnc(Oc2ccc(F)cc2)c1 (configuration not stated)	-7.99%
CCCOc1ccc(CC2=NC(C)(CO)CO2)cc1 (configuration not stated)	12%
CN1CCN([C@@H]2CN(C(=O)c3ccnnc3)[C@@H]3CCCO[C@H]23)CC1	-3.3%
CC(C)Cc1ccc(C(=O)Cn2cnnc2[S+](C)[O-])cc1 (configuration not stated)	-3.94%
COCc1nn(C(C)C)c2c1CCN(Cc1ccoc1)C2	-6.52%
O=C(CCCN1CCOC1=O)Nc1cnn(-c2ccccc2Cl)c1	-5.24%
O=S(=O)(NCC1COc2ccccc2C1)N1CCCCC1 (configuration not stated)	-9.29%
c1ccc2sc(N3CCCC4(CCOC4)C3)nc2c1 (configuration not stated)	-2.11%
Cn1nnc2c1C(COCC1CC1)CN(C(=O)CC1=CCCCC1)C2 (configuration not stated)	-2%
COc1ccc(CN(CCC#N)CCN2CCOCC2)cc1OC	-10.2%
O=C(C1=CCCC1)N1CCC2(CC1)CC(Oc1cccnc1)CO2 (configuration not stated)	-0.424%
COc1ncccc1C(=O)N1C[C@@H]2COC[C@]2(CN(C)C)C1	-1.76%
CNC(=O)[C@@H]1CC[C@@H]2[C@@H](CCN2Cc2cn(C)c3ccccc23)O1	-3.34%
CN(Cc1cc[nH]n1)C(=O)c1ccc2c(c1)nc(N1CC[C@H](O)C1)n2C	-1.12%

Structure (SMILES)	cytotoxicity at 70.5 h
CCCn1nnnc1CSc1nccn1C	-7.23%
COc1ccc(CN2C[C@H](O)C[C@H]2c2nc(-c3ccccc3)no2)cc1	9.25%
CCc1ccc(C(=O)O)cc1S(=O)(=O)Nc1ccc(=O)n(C)c1	5.54%
CCCn1cc(S(=O)(=O)N[C@H]2CN(CCO)C[C@@H]2C2CC2)cn1	-7.84%
Cc1ccc(-c2ncc(C(=O)N3CCCC(CCN)C3)c(O)n2)cc1 (configuration not stated)	-7.81%
CCc1ccsc1C(=O)N1CCN(C(=O)CC(F)(F)F)CC1	3.81%
COc1cccc(O)c1CN1CCCC(Nc2cccc(F)c2)C1 (configuration not stated)	0.789%
CCn1ccnc1CN1CCC(=O)N(CC2CC2)C(C(C)C)C1 (configuration not stated)	31.2%
O=c1[nH]c(-c2ccncc2)ncc1-c1ccnc(NC2CC2)n1	23.6%
CC(=O)N1CCC(c2ccnc(Nc3ccc(C)cn3)n2)C1 (configuration not stated)	16%
CN(C)CCCn1ccc(-c2cccc(-c3ccccn3)c2)n1	15.8%
CC(C)(C)OC(=O)N1CCN(C(=O)CCn2cccn2)CC1	-4.56%
COc1ccc(NC(=O)c2cccc(OC)c2OC)cc1	-3.77%
COc1cc(N2CC[C@@H](O)[C@@H]2Cc2ccncc2)ncn1	-10%
Cc1cc(C)c2[nH]c(C(=O)NCCN3CCCC3=O)c(C)c2c1	23.6%
COc1cccc2ccc(N3CCC(O)(c4ccc(C)cn4)CC3)nc12	-21.5%
CCCc1nc(CN(CC)C(=O)c2ccc3ncsc3c2)no1	-0.393%
COCCN(C)C(C(=O)O)c1ccc(Cl)c(F)c1 (configuration not stated)	-5.39%
CC(=O)N1CCCC1(C(=O)N1CCCC1)c1cnccn1 (configuration not stated)	0.591%
O=C1CC(c2ccc(C(=O)O)cc2)c2cnn(Cc3ccco3)c2N1 (configuration not stated)	-25.8%
Cc1ccc(N2CCCC(NCc3nnc(-c4ccco4)o3)C2)nn1 (configuration not stated)	-13.2%
O=C(c1cccs1)N1CCc2ncnc(C3CCOC3)c2CC1 (configuration not stated)	-14.6%
Cc1nc(NC(=O)OC(C)(C)C)sc1C#N	-6.61%

Structure (SMILES)	cytotoxicity at 70.5 h
COCC(=O)N1CCN(C(=O)Cc2cccs2)[C@H]2CS(=O)(=O)C[C@H]21	-5.46%
Cc1nc(C)n(C2CCCN(C(=O)c3csc(C)n3)C2)n1 (configuration not stated)	-5.49%
CN(CCC(O)c1ccccc1)c1cc(C2CC2)ncn1 (configuration not stated)	-6.59%
Cc1nc2ccc(C(=O)N(CCC#N)CCC#N)cc2nc1C	11.6%
NCc1ccc(Oc2ccc(F)c(F)c2)cc1C(F)(F)F	-0.173%
Cc1occc1C(=O)N1C[C@@H]2OCCN(c3ncccn3)[C@@H]2C1	-11.6%
CCN1CCN(C(=O)Cn2ncc3c2c(C)nn3C(C)C)CC1	-4.28%
NC(=O)COc1cccc(CN2CCc3cncnc3C2)c1	-0.423%
COCc1noc(-c2ccc(N3CCCC3c3nccs3)nc2)n1 (configuration not stated)	12%
Cc1nn(C)c2cnn(Cc3ccc(C(=O)N4CCCCC4)o3)c12	-5.62%
O=C(c1cc[nH]n1)N1CCC(c2cc(Nc3ccccn3)n[nH]2)CC1	-8.04%
O=C(c1ccc(F)c(F)c1)N1CCCC(Nc2ccc(F)cc2)C1 (configuration not stated)	-5.1%
Cn1ccc2c(C(=O)NC3CN4CCC3CC4)cccc21 (configuration not stated)	-32.2%
CNCc1cc(C)n(-c2ccccc2OC)c1C	-5.13%
CN(CCc1nc2ccccc2c(=O)[nH]1)CCC(F)(F)F	-6.6%
CCC1=NC(SCC(=O)c2ccc(Cl)cc2)c2cc(CC)sc2N1 (configuration not stated)	-11%
Cc1c[nH]c(CN2CCCCC2CCN(C)C)c(C)c1=O (configuration not stated)	-10.5%
Cc1ccc(S(=O)(=O)N2CCOc3ccccc32)cc1C(=O)O	-1.56%
COc1ccc(Br)cc1S(=O)(=O)N(C)Cc1ccc(N(C)C)cc1	-3.08%
CCOc1ccccc1C(=O)N1CCCC1c1ncc2c(n1)CCNC2 (configuration not stated)	22.9%
CN1CCN2C[C@@H](NC(=O)c3nc4ccccc4[nH]3)C[C@H]2C1	-4.68%
O=C(NC1CC1)N1C[C@@H]2CCN(C(=O)c3cscn3)[C@@H]2C1	10.3%
Cc1nc(CN2CCO[C@@H]3CC(COc4ccccn4)C[C@H]32)cs1 (some centres not stated)	-1.88%

Structure (SMILES)	cytotoxicity at 70.5 h
CCCN(Cc1ccc(OC)nc1)Cc1ccccc1OC	12.5%
CC[C@H]1CN2CC[C@H]1C[C@@H]2CNC(=O)c1ccco1	-1.78%
CN1CCCCC(C2CCN(S(=O)(=O)c3cn(C)cn3)CC2)C1=O (configuration not stated)	0.674%
CC[C@@H]1N(Cc2ccoc2)CCC[C@]12CCC(=O)N2CCOC	-5.78%
N#Cc1ccc(N2CCC(c3nc(C(F)(F)F)c[nH]3)CC2)nc1	-11.5%
O=C(NC1CCS(=O)(=O)C1)c1ccc(SCc2cscn2)cc1 (configuration not stated)	-6.01%
O=C1N(Cc2cccc(F)c2)CCC12CCCN(c1ncc(F)cn1)C2 (configuration not stated)	-5.64%
COc1cccc(OC2CN(C(=O)CCn3cnc4ccccc43)C2)c1	29.2%
CN1CCC(CNC(=O)CCSc2ccc3c(c2)OCCO3)C1 (configuration not stated)	-2.01%
CC(C)n1ncc2c1NC(=O)C(C#N)C21CCCCC1 (configuration not stated)	-9.51%
CN1CCCC(Cc2cncc(C(=O)N3CCOCC3)c2)C1 (configuration not stated)	12.9%
Cc1nn(-c2ccccn2)c(C)c1[C@@H]1C=C[C@@H](NC(=O)CCC(=O)O)C1	-6.4%
Cc1cc(C(F)(F)F)nc(N(C)Cc2c(C)noc2C)n1	13.3%
CCOc1ccc(CN2C(=O)CC3(CCCC3)C2=O)nc1	17.6%
CCC(CC)CN1C[C@@H]2OCCN(Cc3cnn(C)c3)[C@@H]2C1	-3.01%
CO[C@H]1CN(C(=O)c2cccc(C)n2)CC[C@@]12CCCO2	-6.22%
Cc1n[nH]c(C)c1NC(=O)NCc1ccccn1	-8.47%
COCc1nc(C(=O)NS(=O)(=O)c2ccc(OC)c(C)c2)cs1	-13.2%
Cn1c(C(=O)N2CCC(C(N)=O)C2)c(Cl)c2ccccc21 (configuration not stated)	-5.34%
CC(NCc1cccc(S(=O)(=O)N(C)C)c1)c1ccccn1 (configuration not stated)	-6.92%
